This note sets out measurements from patent publication US7524853B2 (Solvay Pharmaceuticals B.V., priority 2003, dated 2009).

Common to all, as to format: cell-based
Experiment [1] deals with T1, 17β-hydroxysteroid dehydrogenase type 3 (17β-HSD type 3) (Homo sapiens, UniProt P37058).
T1 construct: expressed in transfected cells; host or cells: MCF-7
T1 sequence (P37058 1-310): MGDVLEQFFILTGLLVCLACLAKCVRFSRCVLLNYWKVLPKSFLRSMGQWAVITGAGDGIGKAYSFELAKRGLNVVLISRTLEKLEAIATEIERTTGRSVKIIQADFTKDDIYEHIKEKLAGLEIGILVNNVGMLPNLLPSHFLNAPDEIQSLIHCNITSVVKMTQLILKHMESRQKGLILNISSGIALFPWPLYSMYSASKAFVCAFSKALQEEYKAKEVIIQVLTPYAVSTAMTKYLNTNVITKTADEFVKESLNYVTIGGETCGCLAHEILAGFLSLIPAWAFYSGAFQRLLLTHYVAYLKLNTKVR
Briefly: Inhibition of 17β-HSD type 3 in MCF-7 cells stably expressing the isoenzyme (tritium labeled androstenedione conversion, HPLC). The note with it: MCF-7 cells expressing 17β-HSD type 3, 2 nM tritium labeled androstenedione; for inhibition at 1 µM / inhibition at 10 µM: MCF7; for inhibition at 1 µM / % Inhibition HSD3 1 μM: 1 μM test compound; for inhibition at 1 µM: read-out: % Inhibition HSD3 1 μM; for inhibition at 10 µM / % Inhibition HSD3 10 μM: 10 μM test compound; for inhibition at 10 µM: read-out: % Inhibition HSD3 10 μM. An outline of the steps:
(§1)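 Cells: stable MCF-7 transfectants per isoenzyme. Step one, add compound (two concentrations) plus 2 nM labelled substrate to growth medium. Step two, remove medium at a set time and stop with trichloroacetic acid. Step three, quantify conversion by HPLC with flow scintillation.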

Experiment [2] has as its target T2, 17β-hydroxysteroid dehydrogenase type 1 (17β-HSD type 1) (Homo sapiens, UniProt P14061).
T2 construct: expressed in transfected cells; host or cells: MCF-7
T2 sequence (P14061 1-328): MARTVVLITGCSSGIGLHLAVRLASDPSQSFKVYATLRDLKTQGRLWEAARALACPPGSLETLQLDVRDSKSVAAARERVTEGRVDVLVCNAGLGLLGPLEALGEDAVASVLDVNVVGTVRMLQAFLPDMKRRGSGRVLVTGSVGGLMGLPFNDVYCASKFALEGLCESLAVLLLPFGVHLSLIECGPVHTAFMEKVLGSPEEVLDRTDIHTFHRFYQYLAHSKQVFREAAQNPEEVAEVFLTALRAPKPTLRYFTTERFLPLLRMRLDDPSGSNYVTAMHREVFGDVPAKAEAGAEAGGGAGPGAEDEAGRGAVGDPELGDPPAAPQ
Briefly: Inhibition of 17β-HSD type 1 in MCF-7 cells stably expressing the isoenzyme (tritium labeled estrone conversion, HPLC). The note with it: MCF-7 cells expressing 17β-HSD type 1, 2 nM tritium labeled estrone; for inhibition at 1 µM / inhibition at 10 µM: MCF7; for inhibition at 1 µM / % Inhibition HSD1 1 μM: 1 μM test compound; for inhibition at 1 µM: read-out: % Inhibition HSD1 1 μM; for inhibition at 10 µM / % Inhibition HSD1 10 μM: 10 μM test compound; for inhibition at 10 µM: read-out: % Inhibition HSD1 10 μM. The method in brief:
as §1

In experiment [3] the target is T3, 17β-hydroxysteroid dehydrogenase type 2 (17β-HSD type 2) (Homo sapiens, UniProt P37059).
T3 construct: expressed in transfected cells; host or cells: MCF-7
T3 sequence (P37059 1-387): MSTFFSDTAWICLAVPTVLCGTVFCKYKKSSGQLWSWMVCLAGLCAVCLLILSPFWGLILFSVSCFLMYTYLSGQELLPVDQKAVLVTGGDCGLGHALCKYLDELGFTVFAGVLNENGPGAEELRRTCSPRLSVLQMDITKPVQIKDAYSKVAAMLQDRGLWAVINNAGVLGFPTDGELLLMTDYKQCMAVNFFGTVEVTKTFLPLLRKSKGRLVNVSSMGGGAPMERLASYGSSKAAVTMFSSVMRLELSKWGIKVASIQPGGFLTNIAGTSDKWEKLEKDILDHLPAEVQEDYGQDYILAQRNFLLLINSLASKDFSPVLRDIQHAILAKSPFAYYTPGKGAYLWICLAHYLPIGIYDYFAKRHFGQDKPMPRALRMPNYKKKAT
Briefly: Inhibition of 17β-HSD type 2 in MCF-7 cells stably expressing the isoenzyme (tritium labeled estradiol conversion, HPLC). The note with it: MCF-7 cells expressing 17β-HSD type 2, 2 nM tritium labeled estradiol; for inhibition at 1 µM / inhibition at 10 µM: MCF7; for inhibition at 1 µM / % Inhibition HSD2 1 μM: 1 μM test compound; for inhibition at 1 µM: read-out: % Inhibition HSD2 1 μM; for inhibition at 10 µM / % Inhibition HSD2 10 μM: 10 μM test compound; for inhibition at 10 µM: read-out: % Inhibition HSD2 10 μM. An outline of the steps: as §1

In the case of `CCC(C)Cn1c(-c2cc(OC)c(OC)c(OC)c2Cl)nc2sc3c(c2c1=O)CCC(Cl)(Cl)C3=O` (stereo not drawn) [No. 142, 7,7-Dichloro-2-(2-chloro-3,4,5-trimethoxyphenyl)-3-(2-methylbutyl)-6,7-dihydro-3H,5H-benzo[4,5]thieno[2,3-d]pyrimidine-4,8-dione], the values for the inhibition at 1 µM in experiment [1], in experiment [2] and in experiment [3] were 8%, 32.8% and 6.2%, respectively. Also, the inhibition – broadly, the relative decrease from the control value, in per cent – at 10 µM in experiment [1] was found to be 24.1%; in experiment [2] it was 52.7%; in experiment [3], 10.5%.
Take `COc1ccc(-c2nc3sc4cc(C=O)ccc4c3c(=O)n2Cc2ccccc2)cc1` [No. 17, 3-Benzyl-2-(p-methoxyphenyl)-4-oxo-3,4-dihydro-benzo[4,5]thieno[2,3-d]pyrimidine-7-carbaldehyde]: the inhibition at 1 µM in experiment [1] is 43.5%; in experiment [2], 18.1%; in experiment [3], -5.4%. Moreover, the inhibition at 10 µM in experiment [1] was determined as 100%; in experiment [2], 48.3%; in experiment [3] it was 20.9%.
Take `CCSC1=C(C=O)CCc2c1sc1nc(-c3cc(OC)c(OC)c(OC)c3)n(Cc3ccccc3)c(=O)c21` [No. 6, 3-Benzyl-8-ethylsulfanyl-4-oxo-2-(3,4,5-trimethoxyphenyl)-3,4,5,6-tetrahydro-benzo[4,5]thieno[2,3-d]pyrimidine-7-carbaldehyde]: the values for the inhibition at 1 µM in experiment [1], in experiment [2] and in experiment [3] were 2.1%, 31.8% and 3.8%, respectively. Further, the inhibition at 10 µM was determined as 47.1% in experiment [1], 44.2% in experiment [2] and 29.7% in experiment [3].
In the case of `O=C(OCCn1c(-c2cccs2)nc2sc3c(c2c1=O)CCCC3=O)c1cccs1` [No. 70, Thiophene-2-carboxylic acid 2-(4,8-dioxo-2-thiohen-2-yl-5,6,7,8-tetrahydro-4H-benzo[4,5]thieno[2,3-d]pyrimidin-3-yl)-ethyl ester], the inhibition at 1 µM in experiment [1] was -4.1%; in experiment [2], 15.3%; in experiment [3] it was 13.1%. The inhibition at 10 µM in experiment [1] came to 44.2%; in experiment [2], 39.4%; in experiment [3] it was 17.9%.
For `COc1cccc(-c2nc3sc4c(OC(C)=O)cccc4c3c(=O)n2Cc2ccccc2)c1` [No. 84, Acetic acid 3-benzyl-4-oxo-2-(m-methoxyphenyl)-3,4-dihydro-benzo[4,5]thieno[2,3-d]pyrimidin-8-yl ester], the values for the inhibition at 1 µM in experiment [1], in experiment [2] and in experiment [3] were 4%, 10.2% and 26.4%, respectively. Further, the inhibition at 10 µM was found to be 33.5% in experiment [1], 22.6% in experiment [2] and 63.6% in experiment [3].
As to `COc1cc(-c2nc3sc4c(c3c(=O)n2CC2CCCO2)CCC(Br)C4=O)c(Br)c(OC)c1OC` (stereo not drawn) [No. 132, 7-Bromo-2-(2-bromo-3,4,5-trimethoxyphenyl)-3-(tetrahydrofuran-2-ylmethyl)-6,7-dihydro-3H,5H-benzo[4,5]thieno[2,3-d]pyrimidine-4,8-dione], the values for the inhibition at 1 µM in experiment [1], in experiment [2] and in experiment [3] were 16.9%, 23.8% and 22.8%, respectively. Also, the inhibition at 10 µM in experiment [1] came to 24.9%; in experiment [2], 53.9%; in experiment [3] it was 16.9%.
For `CCCc1nc2sc3c(O)cccc3c2c(=O)n1Cc1cc(Br)ccc1O` [No. 100, 3-(5-Bromo-2-hydroxybenzyl)-8-hydroxy-2-propyl-3H-benzo[4,5]thieno[2,3-d]pyrimidin-4-one], the inhibition at 1 µM in experiment [1] is -0.8%; in experiment [2], 23.5%; in experiment [3], 28.8%. Also, the results for the inhibition at 10 µM in experiment [1], in experiment [2] and in experiment [3] were 7.7%, 66.7% and 81.3%, respectively.
With `COCc1nc2sc3c(c2c(=O)n1Cc1ccccc1)CCCC3=O` [No. 31, 3-Benzyl-2-methoxymethyl-6,7-dihydro-3H,5H-benzo[4,5]thieno[2,3-d]pyrimidine-4,8-dione], the results for the inhibition at 1 µM in experiment [1], in experiment [2] and in experiment [3] were -1.3%, 12% and -0.5%, respectively. Further, the inhibition at 10 µM in experiment [1] is 10.8%; in experiment [2], 39.7%; in experiment [3] it was 5.1%.
Regarding `COc1cc(-c2nc3sc4c(c3c(=O)n2Cc2ccccc2)C(C)CC(Br)C4=O)c(Br)c(OC)c1OC` (stereo not drawn) [No. 685, 3-Benzyl-7-bromo-2-(2-bromo-3,4,5-trimethoxyphenyl)-5-methyl-6,7-dihydro-3H,5H-benzo[4,5]thieno[2,3-d]pyrimidine-4,8-dione], the inhibition at 1 µM stood at 5.1% in experiment [1], 16.6% in experiment [2] and 22.7% in experiment [3]. For the same compound, the inhibition at 10 µM in experiment [1] stood at 13.8%; in experiment [2], 31.2%; in experiment [3], 19.9%.
In the case of `CC(C)=Cc1nc2sc3c(O)cccc3c2c(=O)n1Cc1ccccc1` [No. 667], in experiment [1], the “% Inhibition HSD3 1 μM” value was 16.9% and the “% Inhibition HSD3 10 μM” value is given as 37.0%. Moreover, in experiment [2], the “% Inhibition HSD1 1 μM” value was found to be 20.1% and the “% Inhibition HSD1 10 μM” value amounted to 51.9%. In addition, in experiment [3], the “% Inhibition HSD2 1 μM” value was found to be 20.9% and the “% Inhibition HSD2 10 μM” value stood at 63.7%.
For the compound `CCCc1nc2sc3c(OC(C)=O)cccc3c2c(=O)n1Cc1ccc(Br)o1` [No. 106, Acetic acid 3-(5-bromofuran-2-ylmethyl)-4-oxo-2-propyl-3,4-dihydro-benzo[4,5]thieno[2,3-d]pyrimidin-8-yl ester], the inhibition at 1 µM in experiment [1] was 8.1%; in experiment [2] it was 28.8%; in experiment [3] it was 50%. Besides, the results for the inhibition at 10 µM in experiment [1], in experiment [2] and in experiment [3] were 71.1%, 72.5% and 86.2%, respectively.
Take `CCCCC(CC)c1nc2sc3c(O)cccc3c2c(=O)n1CCc1cccs1` (stereo not drawn) [No. 644]: in experiment [1], the “% Inhibition HSD3 1 μM” value was 13.9% and the “% Inhibition HSD3 10 μM” value was 19.8%. In experiment [2], the “% Inhibition HSD1 1 μM” value came out at 29.8% and the “% Inhibition HSD1 10 μM” value came to 28.4%. Further, in experiment [3], the “% Inhibition HSD2 1 μM” value was 27.6% and the “% Inhibition HSD2 10 μM” value stood at 26.4%.
In the case of `COc1cc(-c2nc3sc4c(c3c(=O)n2CC(C)C)CCCC4=O)cc(OC)c1OC` [No. 114, 3-Isobutyl-2-(3,4,5-trimethoxyphenyl)-6,7-dihydro-3H,5H-benzo[4,5]thieno[2,3-d]pyrimidine-4,8-dione], the inhibition at 1 µM in experiment [1] was determined as 2.4%; in experiment [2], 15.5%; in experiment [3], 15.5%. Besides, the values for the inhibition at 10 µM in experiment [1], in experiment [2] and in experiment [3] were 32%, 55.9% and 25.3%, respectively.
As for `CCC(C)Cn1c(-c2cc(OC)c(OC)c(OC)c2Br)nc2sc3c(c2c1=O)CCC(Br)(Br)C3=O` (stereo not drawn) [No. 128, 7,7-Dibromo-2-(2-bromo-3,4,5-trimethoxyphenyl)-3-(2-methylbutyl)-6,7-dihydro-3H,5-benzo[4,5]thieno[2,3-d]pyrimidine-4,8-dione], the inhibition at 1 µM in experiment [1] is 4.7%; in experiment [2], 17.9%; in experiment [3], -4.9%. Also, the inhibition at 10 µM in experiment [1] was determined as 6.3%; in experiment [2], 25.9%; in experiment [3], 0%.
